Reference: PMC5011342, “A high throughput drug screening assay to identify compounds that promote oligodendrocyte differentiation using acutely dissociated and purified oligodendrocyte precursor cells” (BMC Research Notes, 2016)
Structures can show the parent of a compound that is named as a salt. Where two headings read alike, the source gives them in different places.

Assays:
[1] = tested on: acutely dissociated and purified rat OPCs; assay: Acute OL differentiation assay (MBP expression/cell, immunofluorescent image quantification); format: cell-based; conditions: for activation at 0.08 µM: test compound at 0.08 uM, read-out: 0.08 uM (% Quet)
Summary of the method: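 This acute differentiation assay used purified rat OPCs from postnatal day 6–7 pups, seeded into PDL/laminin-coated 96-well plates in differentiation medium lacking PDGF and FGF. Compounds were applied in quadruplicate after a 1–2 h preincubation at 37 °C, 10 % CO2, with 0.1 % DMSO negative and 40 ng/ml T3 positive controls in eight wells. After fixation on DIV4, anti-MBP immunofluorescence images yielded MBP expression/cell.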

expanded OPCs = assay: cells; conditions: for viability at 0.1 µM / viability at 1 µM / viability at 10 µM: Rattus norvegicus, 72 h
Summary of the method: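 Toxicity screen: compounds added at 0.1, 1 and 10 µM to PDGF-AA-expanded OPCs in 96-well plates, 3-day incubation at 37 °C, 10% CO2, then alamarBlue 1:10 for 4 h with fluorescence readout. Results set screening doses of 10/2, 2/0.4 or 0.4/0.08 µM.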

[2] = Rattus norvegicus, test compound at 2 uM, NCC library screen, sheet "All OLga data", relative to quetiapine, read-out: 2 uM (% Quet)
[3] = Rattus norvegicus, test compound at 10 uM, NCC library screen, sheet "All OLga data", relative to quetiapine, read-out: 10 uM (% Quet)
[4] = read-out: 0.1 µM (% DMSO), alamarBlue viability, NCC library compound at 0.1 µM, sheet "All Tox data"
[5] = read-out: 1 µM (% DMSO), alamarBlue viability, NCC library compound at 1 µM, sheet "All Tox data"
[6] = read-out: 10 µM (% DMSO), alamarBlue viability, NCC library compound at 10 µM, sheet "All Tox data"
[7] = alamarBlue viability of expanded OPCs, compound at 0.1 µM, relative to DMSO control
[8] = alamarBlue viability of expanded OPCs, compound at 1 µM, relative to DMSO control
[9] = alamarBlue viability of expanded OPCs, compound at 10 µM, relative to DMSO control
[10] = Rattus norvegicus, 2 uM test compound, relative to quetiapine, sheet "All OLga data", read-out: OL differentiation, 2 uM (% Quet)
[11] = Rattus norvegicus, 10 uM test compound, relative to quetiapine, sheet "All OLga data", read-out: OL differentiation, 10 uM (% Quet)
[12] = read-out: 0.1 µM (% DMSO), alamarBlue viability of expanded OPCs, compound at 0.1 µM, sheet All Tox data
[13] = read-out: 1 µM (% DMSO), alamarBlue viability of expanded OPCs, compound at 1 µM, sheet All Tox data
[14] = read-out: 10 µM (% DMSO), alamarBlue viability of expanded OPCs, compound at 10 µM, sheet All Tox data
[15] = Rattus norvegicus, test compound at 0.4 uM, NCC library screen, sheet "All OLga data", relative to quetiapine, read-out: 0.4 uM (% Quet)
[16] = Rattus norvegicus, test compound at 2 uM, MBP expression relative to quetiapine, NCC library screen, sheet "All OLga data", read-out: 2 uM (% Quet)
[17] = Rattus norvegicus, test compound at 10 uM, MBP expression relative to quetiapine, NCC library screen, sheet "All OLga data", read-out: 10 uM (% Quet)
[18] = Rattus norvegicus, 0.4 uM test compound, relative to quetiapine, sheet "All OLga data", read-out: OL differentiation, 0.4 uM (% Quet)

| SMILES | 0.1 µM (% DMSO) (expanded OPCs; [7]) | 1 µM (% DMSO) (expanded OPCs; [8]) | 10 µM (% DMSO) (expanded OPCs; [9]) | activation at 2 µM [1, 10] [%] | activation at 10 µM [1, 11] [%] | viability at 0.1 µM (expanded OPCs; [12]) [%] | viability at 1 µM (expanded OPCs; [13]) [%] | viability at 10 µM (expanded OPCs; [14]) [%] | further results |
| --- | --- | --- | --- | --- | --- | --- | --- | --- | --- |
| COc1cc(C)nc(-n2nc(C)cc2OC)n1 [Epirizole] | – | – | – | – | – | – | – | – | activation at 2 µM [1, 2]: -9.9%; activation at 10 µM [1, 3]: -10.5%; viability at 0.1 µM (expanded OPCs; [4]): 106%; viability at 1 µM (expanded OPCs; [5]): 110%; viability at 10 µM (expanded OPCs; [6]): 112% |
| CCOC(=O)CCC(=O)O[C@H]1[C@H](O[C@@H]2[C@@H](C)[C@H](O[C@H]3C[C@@](C)(OC)[C@@H](O)[C@H](C)O3)[C@@H](C)C(=O)O[C@H](CC)[C@@](C)(O)[C@H](O)[C@@H](C)C(=O)[C@H](C)C[C@@]2(C)O)O[C@H](C)C[C@@H]1N(C)C [Erythromycin Ethylsuccinate] | 95.4 | 87.4 | 75.9 | – | – | – | – | – | activation at 2 µM [1, 2]: 1%; activation at 10 µM [1, 3]: 8.7% |
| CC[C@H]1OC(=O)[C@H](C)[C@@H](O[C@H]2C[C@@](C)(OC)[C@@H](O)[C@H](C)O2)[C@H](C)[C@@H](O[C@@H]2O[C@H](C)C[C@H](N(C)C)[C@H]2O)[C@](C)(O)C[C@@H](C)C(=O)[C@H](C)[C@@H](O)[C@]1(C)O [Erythromycin] | – | – | – | -40.1 | -66.2 | 93.4 | 89.6 | 59.1 | – |
| COC(=O)CCc1ccc(OCC(O)CNC(C)C)cc1 (stereo not drawn) [Esmolol, reference compound] | – | – | – | 39.8 | 29.6 | 93.8 | 98.2 | 113 | EC50 ([1]; Rattus norvegicus, average EC50 for induction of OL differentiation from independent biological replicates, eight concentrations): 240 µM; hit in OL differentiation assay, MRF-TMC ([1]; ● = confirmed hit in this paper's assay): ● |
| COc1ccc2nc([S@@+]([O-])Cc3ncc(C)c(OC)c3C)[nH]c2c1 [Esomeprazole] | – | – | – | 12.7 | -23.8 | 85.5 | 90 | 95.3 | – |
| CCCCC(=O)O[C@H]1CC[C@H]2[C@@H]3CCc4cc(O)ccc4[C@H]3CC[C@]12C [Estradiol valerate] | – | – | – | – | – | – | – | – | activation at 0.4 µM [1, 15]: -65.1%; viability at 0.1 µM (expanded OPCs; [4]): 93.2%; viability at 1 µM (expanded OPCs; [5]): 93.5%; viability at 10 µM (expanded OPCs; [6]): 9.6% |
| C[C@]12CC[C@@H]3c4ccc(O)cc4CC[C@H]3[C@@H]1CC[C@@H]2O [Estradiol] | – | – | – | 15.2 | 32.1 | 81.2 | 75.5 | 64.6 | – |
| C[C@]12CC[C@@H]3c4ccc(OS(=O)(=O)O)cc4CC[C@H]3[C@@H]1CCC2=O [Estrone sulfate] | – | – | – | – | – | – | – | – | 2 uM (% Quet) ([1]; test compound at 2 uM, NCC library screen, sheet "All OLga data", relative to quetiapine): 12.5 % Quet; 10 uM (% Quet) ([1]; test compound at 10 uM, NCC library screen, sheet "All OLga data", relative to quetiapine): 10.2 % Quet; 0.1 µM (% DMSO) (expanded OPCs; alamarBlue viability, NCC library compound at 0.1 µM, sheet "All Tox data"): 94.4 % DMSO; 1 µM (% DMSO) (expanded OPCs; alamarBlue viability, NCC library compound at 1 µM, sheet "All Tox data"): 83.6 % DMSO; 10 µM (% DMSO) (expanded OPCs; alamarBlue viability, NCC library compound at 10 µM, sheet "All Tox data"): 92.4 % DMSO |
| CN1CCN(C(=O)O[C@H]2c3nccnc3C(=O)N2c2ccc(Cl)cn2)CC1 [Eszopiclone] | 103.0 | 99.5 | 106.9 | – | – | – | – | – | activation at 2 µM [1, 16]: -2.9%; activation at 10 µM [1, 17]: -10.2% |
| C=C(CC)C(=O)c1ccc(OCC(=O)O)c(Cl)c1Cl [Ethacrynic Acid] | 90.2 | 80.6 | 11.2 | – | – | – | – | – | activation at 0.4 µM [1, 15]: -23.7%; activation at 2 µM [1, 2]: -192% |
| CC[C@@H](CO)NCCN[C@@H](CC)CO [Ethambutol] | 106.3 | 100.0 | 85.9 | – | – | – | – | – | activation at 2 µM [1, 16]: 2.2%; activation at 10 µM [1, 17]: -11.9% |
| C#C[C@]1(O)CC[C@H]2[C@@H]3CCc4cc(O)ccc4[C@H]3CC[C@@]21C [Ethinyl Estradiol] | – | – | – | -2.6 | – | 81 | 88 | 43.9 | activation at 0.4 µM [1, 18]: 7.3% |
| CCc1cc(C(N)=S)ccn1 [Ethionamide] | 89.6 | 86.5 | 79.6 | – | – | – | – | – | activation at 2 µM [1, 2]: -7.9%; activation at 10 µM [1, 3]: 7.6% |
| CC[C@]1(O)CC[C@H]2[C@@H]3CCC4=CCCC[C@@H]4[C@H]3CC[C@@]21C [Ethylestrenol] | – | – | – | – | – | – | – | – | activation at 2 µM [1, 2]: -2.2%; activation at 10 µM [1, 3]: -45.5%; viability at 0.1 µM (expanded OPCs; [4]): 98%; viability at 1 µM (expanded OPCs; [5]): 96.1%; viability at 10 µM (expanded OPCs; [6]): 54.2% |
| CCC(C(N)=O)N1CCCC1=O (stereo not drawn) [Etiracetam] | – | – | – | -3.1 | -6.3 | 86.3 | 90.6 | 91.7 | – |
| CCc1cccc2c3c([nH]c12)C(CC)(CC(=O)O)OCC3 (stereo not drawn) [Etodolac] | 98.7 | 88.3 | 92.3 | – | – | – | – | – | activation at 2 µM [1, 16]: 20.9%; activation at 10 µM [1, 17]: 7.5% |
| CCOC(=O)c1cncn1[C@H](C)c1ccccc1 [Etomidate] | 89.9 | 87.4 | 88.3 | – | – | – | – | – | activation at 2 µM [1, 16]: 10.1%; activation at 2 µM [1, 2]: -2.5%; activation at 10 µM [1, 17]: -7.1%; activation at 10 µM [1, 3]: -8.3%; viability at 0.1 µM (expanded OPCs; [4]): 101%; viability at 1 µM (expanded OPCs; [5]): 87.4%; viability at 10 µM (expanded OPCs; [6]): 83% |
| CCOC(=O)[C@@]1(CCCCCCOc2ccc(Cl)cc2)CO1 [Etomoxir] | – | – | – | 10.1 | 5.4 | 85.7 | 92.3 | 86.2 | – |
| COc1cc([C@@H]2c3cc4c(cc3[C@@H](O[C@@H]3O[C@@H]5CO[C@@H](C)O[C@H]5[C@H](O)[C@H]3O)[C@H]3COC(=O)[C@H]23)OCO4)cc(OC)c1O [Etoposide] | – | – | – | – | – | – | – | – | activation at 0.08 µM ([1]; Rattus norvegicus, NCC library screen, sheet "All OLga data", relative to quetiapine): -42.3%; viability at 0.1 µM (expanded OPCs; [4]): 40.9%; viability at 1 µM (expanded OPCs; [5]): 14%; viability at 10 µM (expanded OPCs; [6]): 8.9% |
| C=C1C[C@@H]2[C@H](CC[C@]3(C)C(=O)CC[C@@H]23)[C@@]2(C)C=CC(=O)C=C12 [Exemestane] | – | – | – | -24.2 | -57.2 | – | – | – | viability at 0.1 µM (expanded OPCs; [4]): 92.7%; viability at 1 µM (expanded OPCs; [5]): 95.1%; viability at 10 µM (expanded OPCs; [6]): 102% |
| O=C1[C@H](CC[C@H](O)c2ccc(F)cc2)[C@@H](c2ccc(O)cc2)N1c1ccc(F)cc1 [Ezetimibe] | – | – | – | -114 | – | 93.7 | 87.4 | 48.7 | activation at 0.4 µM [1, 18]: -41.3% |
| CC(=O)OCC(CCn1cnc2cnc(N)nc21)COC(C)=O [Famciclovir] | – | – | – | -6.9 | -8.8 | 97.6 | 90.6 | 106 | – |
| NC(N)=Nc1nc(CSCCC(N)=NS(N)(=O)=O)cs1 [Famotidine] | – | – | – | -2.2 | 17.8 | 92.3 | 96.4 | 102 | – |
| NC(=O)OCC(COC(N)=O)c1ccccc1 [Felbamate] | – | – | – | -1.8 | -7.9 | – | – | – | viability at 0.1 µM (expanded OPCs; [4]): 92.3%; viability at 1 µM (expanded OPCs; [5]): 95.5%; viability at 10 µM (expanded OPCs; [6]): 91.9% |
| CCOC(=O)C1=C(C)NC(C)=C(C(=O)OC)C1c1cccc(Cl)c1Cl (stereo not drawn) [Felodipine] | 85.5 | 62.8 | 18.3 | – | – | – | – | – | activation at 0.08 µM ([1]; Rattus norvegicus, MBP expression relative to quetiapine, NCC library screen, sheet "All OLga data"): -8.1%; activation at 0.4 µM ([1]; Rattus norvegicus, test compound at 0.4 uM, MBP expression relative to quetiapine, NCC library screen, sheet "All OLga data", read-out: 0.4 uM (% Quet)): 0.8% |
| CC(C)OC(=O)C(C)(C)Oc1ccc(C(=O)c2ccc(Cl)cc2)cc1 [Fenofibrate] | 85.2 | 87.6 | 103.9 | – | – | – | – | – | activation at 2 µM [1, 2]: 31.5%; activation at 10 µM [1, 3]: -62.3% |
